Converted amounts (≈) assume the structure as drawn.
Legend:
[1] = Stability of prodrugs in 0.1 M Tris/HCl buffer (pH 7.3); settings: TLC
[2] = tested on: WIDR; assay: Anti-proliferative effect, SRB test; type: cell-based, human; settings: WIDR colon cancer, 5 days of incubation
Procedure: (§1) The anti-proliferative effect of prodrugs and parent drugs was determined in vitro applying seven well-characterised human tumor cell lines and the microculture sulphorhodamine B (SRB) test. The anti-proliferative effects were determined and expressed as IC50 values, that are the (pro)drug concentrations that gave 50% inhibition when compared to control cell growth after 5 days of incubation.

[3] = tested on: M19; assay: Anti-proliferative effect, SRB test; type: cell-based, human; settings: M19 melanoma, 5 days of incubation
Procedure: as §1

[4] = tested on: EVSA-T; assay: Anti-proliferative effect, SRB test; type: cell-based, human; settings: EVSA-T breast cancer, 5 days of incubation
Procedure: as §1

[5] = tested on: IGROV; assay: Anti-proliferative effect, SRB test; type: cell-based, human; settings: IGROV ovarian cancer, 5 days of incubation
Procedure: as §1

[6] = tested on: MCF-7; assay: Anti-proliferative effect, SRB test; type: cell-based, human; settings: MCF-7 breast cancer, 5 days of incubation
Procedure: as §1

[7] = tested on: H226; assay: Anti-proliferative effect, SRB test; type: cell-based, human; settings: H226 non-small cell lung cancer, 5 days of incubation
Procedure: as §1

[8] = tested on: A498; assay: Anti-proliferative effect, SRB test; type: cell-based, human; settings: A498 renal cancer, 5 days of incubation
Procedure: as §1

[9] = absence of zinc powder, methanol/acetic acid, same conditions
Procedure: 36 mg of 2′-[nitrocinnamyl carbonate]-paclitaxel 1 was dissolved in 8 ml methanol and 2 ml acetic acid. A catalytic amount of zinc powder was added and the red mixture was stirred for 12 h. Dichloromethane was added and the organic layer was washed with saturated sodium bicarbonate, 0.5 N potassium bisulfate, brine, and water and dried over anhydrous sodium sulfate.

[10] = 150 μM in 0.1 M Tris/HCl buffer (pH 7.3), 3 days

| Compound | formation of degradation products [1, 10] | ID50 [2] | ID50 [3] | ID50 [4] | ID50 [5] | ID50 [6] | ID50 [7] | ID50 [8] | paclitaxel release without reduction [9] | formation of degradation products ([1]; 100–270 μM in 0.1 M Tris/HCl buffer (pH 7.3), 90 hours) |
| --- | --- | --- | --- | --- | --- | --- | --- | --- | --- | --- |
| 2′-[H-D-Ala-Phe-Lys-PABC-N(Me)—(CH2)2—N(Me)CO]-paclitaxel (.2HCl) [Prodrug 43] | no formation of degradation products | 117 ng/mL | 96 ng/mL | 119 ng/mL | 499 ng/mL | 60 ng/mL | 62 ng/mL | 681 ng/mL | – | – |
| COc1cccc2c1C(=O)c1c(O)c3c(c(O)c1C2=O)C[C@@](O)(C(=O)CO)C[C@@H]3O[C@H]1C[C@H](N)[C@H](O)[C@H](C)O1 [Doxorubicin, doxorubicin, reference compound] | – | 11 ng/mL (≈ 0.0202 µM) | 16 ng/mL (≈ 0.0294 µM) | 8 ng/mL (≈ 0.0147 µM) | 60 ng/mL (≈ 0.11 µM) | 10 ng/mL (≈ 0.0184 µM) | 199 ng/mL (≈ 0.366 µM) | 90 ng/mL (≈ 0.166 µM) | – | – |
| CC(=O)O[C@H]1C(=O)[C@@]2(C)[C@H]([C@H](OC(=O)c3ccccc3)[C@]3(O)C[C@H](OC(=O)[C@H](O)[C@@H](NC(=O)c4ccccc4)c4ccccc4)C(C)=C1C3(C)C)[C@]1(OC(C)=O)CO[C@@H]1C[C@@H]2O [Paclitaxel, paclitaxel, reference compound] | – | <3 ng/mL | <3 ng/mL | <3 ng/mL | 10 ng/mL (≈ 0.0117 µM) | <3 ng/mL | <3 ng/mL | <3 ng/mL | – | – |
| CC(=O)OC1C(=O)C2(C)C(O)CC3OCC3(OC(C)=O)C2C(OC(=O)c2ccccc2)C2(O)CC(OC(=O)C(OC(=O)OCC=Cc3ccc([N+](=O)[O-])cc3)C(NC(=O)c3ccccc3)c3ccccc3)C(C)=C1C2(C)C (stereo not drawn) [Prodrug 1, 2′-[4-nitrocinnamyl carbonate]-paclitaxel] | – | – | – | – | – | – | – | – | no paclitaxel was formed | – |
| CC(=O)OC1C(=O)C2(C)C(O)CC3OCC3(OC(C)=O)C2C(OC(=O)c2ccccc2)C2(O)CC(OC(=O)C(OC(=O)OCc3ccc(NC(=O)OCc4ccc(NC(=O)C(CCCCN)NC(=O)C(Cc5ccccc5)NC(=O)C(C)N)cc4)cc3)C(NC(=O)c3ccccc3)c3ccccc3)C(C)=C1C2(C)C.Cl.Cl [Prodrug 22, 2′-[H-D-Ala-Phe-Lys-PABC-PABC]-paclitaxel (.2HCl)] | no formation of degradation products | 5 ng/mL | 7 ng/mL | 5 ng/mL | 22 ng/mL | 11 ng/mL | 7 ng/mL | 25 ng/mL | – | – |
| H-D-Ala-Phe-Lys-PABC-PABC-DOX.5.7HCl [Prodrug 20] | – | 627 ng/mL | 302 ng/mL | 546 ng/mL | 896 ng/mL | 242 ng/mL | 503 ng/mL | 2303 ng/mL | – | no formation of degradation products |

From US7223837B2, “Elongated and multiple spacers in activatible prodrugs” (Syntarga B.V., priority 2001, dated 2007)
